The NIST ThermoML archive (doi:10.1021/je900888e)
Numbers after ± are expanded uncertainties.

Assay: mn = molality of the nth substance listed, in mol/kg
Settings: 101 kPa, Liquid; for speed of sound: Pulse-echo method

CCCC[P+](CCCC)(CCCC)CCCC.[Br-] [tetrabutylphosphonium bromide] + CCO
Settings	mass density, 288.15 K [kg/m3]	mass density, 293.15 K [kg/m3]	mass density, 298.15 K [kg/m3]	mass density, 303.15 K [kg/m3]	mass density, 308.15 K [kg/m3]	mass density, 313.15 K [kg/m3]	mass density, 323.15 K [kg/m3]	speed of sound, 298.15 K [m/s]
m1 = 0.01059	794.469 ± 0.24	790.202 ± 0.24	785.915 ± 0.25	781.605 ± 0.25	777.266 ± 0.26	772.883 ± 0.26	763.983 ± 0.27	1143.4 ± 0.81
m1 = 0.01529	794.835 ± 0.24	790.569 ± 0.24	786.285 ± 0.25	781.975 ± 0.25	777.642 ± 0.25	773.262 ± 0.26	764.367 ± 0.26	–
m1 = 0.02012	795.211 ± 0.24	790.945 ± 0.24	786.664 ± 0.25	782.36 ± 0.25	778.029 ± 0.25	773.654 ± 0.26	764.765 ± 0.26	1144.2 ± 0.81
m1 = 0.02498	795.579 ± 0.24	791.314 ± 0.24	787.039 ± 0.25	782.735 ± 0.25	778.405 ± 0.25	774.033 ± 0.26	765.15 ± 0.26	–
m1 = 0.03006	795.97 ± 0.24	791.71 ± 0.24	787.435 ± 0.25	783.133 ± 0.25	778.811 ± 0.25	774.44 ± 0.26	765.563 ± 0.26	1144.9 ± 0.81
m1 = 0.03503	796.342 ± 0.24	792.084 ± 0.24	787.812 ± 0.25	783.514 ± 0.25	779.185 ± 0.25	774.821 ± 0.26	765.954 ± 0.26	–
m1 = 0.04151	796.84 ± 0.24	792.586 ± 0.24	788.317 ± 0.25	784.017 ± 0.25	779.692 ± 0.25	775.339 ± 0.26	766.473 ± 0.26	–
m1 = 0.04161	–	–	–	–	–	–	–	1145.8 ± 0.81
m1 = 0.05762	798.064 ± 0.24	793.819 ± 0.24	789.557 ± 0.25	785.266 ± 0.25	780.958 ± 0.25	776.605 ± 0.26	767.762 ± 0.26	1147 ± 0.81
m1 = 0.0739	799.301 ± 0.24	795.066 ± 0.24	790.805 ± 0.24	786.532 ± 0.25	782.224 ± 0.25	777.879 ± 0.26	769.054 ± 0.26	1148.3 ± 0.82
m1 = 0.09578	800.947 ± 0.24	796.718 ± 0.24	792.466 ± 0.24	788.201 ± 0.25	783.906 ± 0.25	779.575 ± 0.25	770.773 ± 0.26	1150 ± 0.82
m1 = 0.1153	802.415 ± 0.24	798.195 ± 0.24	793.96 ± 0.24	789.696 ± 0.25	785.405 ± 0.25	781.083 ± 0.25	772.302 ± 0.26	1151.6 ± 0.83
m1 = 0.1491	805.003 ± 0.24	800.793 ± 0.24	796.569 ± 0.24	792.326 ± 0.25	788.054 ± 0.25	783.746 ± 0.25	775 ± 0.26	1154 ± 0.83
m1 = 0.1902	808.127 ± 0.24	803.94 ± 0.24	799.735 ± 0.24	795.51 ± 0.25	791.254 ± 0.25	786.963 ± 0.25	778.257 ± 0.26	1157.1 ± 0.84
m1 = 0.2304	811.194 ± 0.24	807.016 ± 0.24	802.825 ± 0.24	798.61 ± 0.25	794.369 ± 0.25	790.1 ± 0.25	781.434 ± 0.26	1160.1 ± 0.85
m1 = 0.2693	814.212 ± 0.24	810.05 ± 0.24	805.871 ± 0.24	801.675 ± 0.24	797.452 ± 0.25	793.195 ± 0.25	784.564 ± 0.26	1163.2 ± 0.86
m1 = 0.3148	817.67 ± 0.24	813.522 ± 0.24	809.364 ± 0.24	805.185 ± 0.24	800.979 ± 0.25	796.743 ± 0.25	788.154 ± 0.26	1166.6 ± 0.87
m1 = 0.3532	820.707 ± 0.24	816.572 ± 0.24	812.423 ± 0.24	808.255 ± 0.24	804.069 ± 0.25	799.851 ± 0.25	791.3 ± 0.26	1169.7 ± 0.88
